The test system of assay [1] is Streptococcus pneumoniae 1/1. In words: MIC against Streptococcus pneumoniae 1/1 (trimethoprim- and penicillin-resistant clinical isolate, serotype 6). In kind it is cell-based. To be noted: Streptococcus pneumoniae 1/1, trimethoprim- and penicillin-resistant, serotype 6; read-out: Spn 1/1 MIC. How it is done: The following Tables 1 and 2 contain inhibitory concentrations determined in the above test for representative members of the class of compound defined by formula I. The following microorganisms were tested: […]
Col. 2: MIC Spn1/1; μg/ml (Streptococcus pneumoniae 1/1, Trimethoprim- and Penicillin-resistant, Serotype 6; clinical isolate, stored at −80° C.). Lit.: H. Locher et al., Can. J. Infect. Dis. 6: Suppl. C, p 469C.

Assay [2] concerns Streptococcus pneumoniae ATCC 49619. In words: MIC against Streptococcus pneumoniae ATCC 49619 (trimethoprim- and penicillin-susceptible reference strain). It is filed as cell-based. To be noted: ATCC49619; Streptococcus pneumoniae ATCC 49619, trimethoprim- and penicillin-susceptible; read-out: Spn 49619 MIC. How it is done: The following Tables 1 and 2 contain inhibitory concentrations determined in the above test for representative members of the class of compound defined by formula I. The following microorganisms were tested: Col. 1: […]

The target in assay [3] is purified DHFR of strain Spn1/1 (Streptococcus pneumoniae serotype 4, UniProt Q54801, E20D/I100L/L135F/P70S/Q81H). In words: biochemical. The text has this:
Col. 3: DHFR Spn1/1; μM)—the IC50-values in μM against the purified DHFR of the above strain Spn1/1; of Streptococcus pneumoniae.

This passage reports MIC and IC50 results from patent US6703397B2, “Pyrimidinyl methyl indole derivatives with antibacterial activity” (Basilea Pharmaceutica AG, priority 2000, dated 2004).

Converted amounts (≈) assume the structure as drawn.

Chain of purified DHFR of strain Spn1/1 (Q54801 whole entry E20D/P70S/Q81H/I100L/L135F): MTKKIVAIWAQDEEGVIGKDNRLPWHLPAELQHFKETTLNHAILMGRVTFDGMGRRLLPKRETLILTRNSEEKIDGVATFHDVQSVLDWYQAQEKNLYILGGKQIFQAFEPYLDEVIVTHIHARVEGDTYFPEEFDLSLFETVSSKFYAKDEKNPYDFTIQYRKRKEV

For `CC(C)CS(=O)(=O)Oc1cc(Cc2cnc(N)nc2N)cc2c1ccn2C` [Example 5d, 2-Methyl-propane-1-sulfonic acid 6-(2,4-diamino-pyrimidin-5-ylmethyl)-1-methyl-1H-indol-4-yl ester], the values for the MIC in assay [1] and in assay [2] were 4 µg/mL (≈ 10.3 µM) and 0.125 µg/mL (≈ 0.321 µM), respectively. For the same molecule, the midpoint of inhibition in assay [3], the IC50, lay at 36 nM.

For the molecule `CCC(C)S(=O)(=O)Oc1cc(Cc2cnc(N)nc2N)cc2c1ccn2CC` (racemic) [Example 8d, rac-Butane-2-sulfonic acid 6-(2,4-diamino-pyrimidin-5-ylmethyl)-1-ethyl-1H-indol-4-yl ester], the MIC worked out at 1 µg/mL (≈ 2.48 µM) in assay [1] and 0.03 µg/mL (≈ 0.0743 µM) in assay [2]. Moreover, the IC50 in assay [3] amounted to 1.8 nM.

Take `CCn1ccc2c(OCC3CCC3)cc(Cc3cnc(N)nc3N)cc21` [Example 7f, 5-(4-Cyclobutylmethoxy-1-ethyl-1H-indol-6-ylmethyl)-pyrimidine-2,4-diamine]: the MIC was 2 µg/mL (≈ 5.69 µM) in assay [1] and 0.5 µg/mL (≈ 1.42 µM) in assay [2]. Also, in assay [3], the half-inhibitory concentration (IC50) turned out to be 41 nM.

As to `CCOc1cc(Cc2cnc(N)nc2N)cc2c1ccn2S(=O)(=O)C(C)C` [Example 2d, 5-[4-Ethoxy-1-(propane-2-sulfonyl)-1H-indol-6-ylmethyl]-pyrimidine-2,4-diamine], the MIC in assay [1] was over 8 µg/mL; in assay [2], 0.5 µg/mL (≈ 1.28 µM). In assay [3], this molecule displayed an IC50 of 330 nM.

Take `CCOc1cc(Cc2cnc(N)nc2N)cc2c1c(-c1cccc(OC)c1)cn2CC` [Example 17a, 5-[4-Ethoxy-1-ethyl-3-(3-methoxy-phenyl)-1H-indol-6-ylmethyl]-pyrimidine-2,4-diamine]: the MIC in assay [1] came out at 8 µg/mL (≈ 19.2 µM); in assay [2], 0.5 µg/mL (≈ 1.2 µM). This molecule returned an IC50 in assay [3] of 6.3 nM.

In the case of `CCn1ccc2c(OCC3(C)CC3)cc(Cc3cnc(N)nc3N)cc21` [Example 7h, 5-[1-Ethyl-4-(1-methyl-cyclopropylmethoxy)-1H-indol-6-ylmethyl]-pyrimidine-2,4-diamine], the MIC in assay [1] is 4 µg/mL (≈ 11.4 µM); in assay [2], 1 µg/mL (≈ 2.85 µM). In assay [3], this molecule registered an IC50 of 15 nM.

Regarding `CCn1cc(-c2cccc(OC)c2)c2c(OC)cc(Cc3cnc(N)nc3N)cc21` [Example 17b, 5-[1-Ethyl-4-methoxy-3-(3-methoxy-phenyl)-1H-indol-6-ylmethyl]-pyrimidine-2,4-diamine], the MIC in assay [1] is 8 µg/mL (≈ 19.8 µM); in assay [2], 0.5 µg/mL (≈ 1.24 µM). In assay [3], this molecule registered an IC50 of 4.3 nM.

For `CCOc1cc(Cc2cnc(N)nc2N)cc2c1ccn2CC` [Example 3, 5-(4-Ethoxy-1-ethyl-1H-indol-6-ylmethyl)-pyrimidine-2,4-diamine], the MIC in assay [1] was determined as 4 µg/mL (≈ 12.8 µM); in assay [2] it was 0.125 µg/mL (≈ 0.401 µM). In assay [3], the IC50 was 24 nM.

Take `CCC(C)S(=O)(=O)Oc1cc(Cc2cnc(N)nc2N)cc2c1ccn2C` (racemic) [Example 5e, rac-Butane-2-sulfonic acid 6-(2,4-diamino-pyrimidin-5-ylmethyl)-1-methyl-1H-indol-4-yl ester]: the values for the MIC in assay [1] and in assay [2] were 8 µg/mL (≈ 20.5 µM) and 0.125 µg/mL (≈ 0.321 µM), respectively. Also, the 50% inhibitory concentration (IC50) in assay [3] stood at 13 nM.

Turning to `CCn1cc(C)c2c(OS(=O)(=O)CC3CC3)cc(Cc3cnc(N)nc3N)cc21` [Example 12b, Cyclopropyl-methanesulfonic acid 6-(2,4-diamino-pyrimidin-5-ylmethyl)-1-ethyl-3-methyl-1H-indol-4-yl ester], the MIC in assay [1] was 4 µg/mL (≈ 9.63 µM); in assay [2], at most 0.015 µg/mL. For the same molecule, half-maximal inhibition in assay [3] (IC50) required 3.7 nM.

In the case of `CCOc1cc(Cc2cnc(N)nc2N)cc2c1ccn2CC1CC1` [Example 2a, 5-(1-cyclopropylmethyl-4-ethoxy-1H-indol-6-ylmethyl)-pyrimidine-2,4-diamine], the results for the MIC in assay [1] and in assay [2] were over 8 µg/mL and 0.5 µg/mL (≈ 1.48 µM), respectively. The same molecule registered an IC50 in assay [3] of 110 nM.

Consider `CCn1ccc2c(OCC3OCCO3)cc(Cc3cnc(N)nc3N)cc21` [Example 7e, 5-[4-([1,3]Dioxolan-2-ylmethoxy)-1-ethyl-1H-indol-6-ylmethyl]-pyrimidine-2,4-diamine], for which the MIC in assay [1] turned out to be 8 µg/mL (≈ 21.7 µM); in assay [2], 1 µg/mL (≈ 2.71 µM). The molecule further had an IC50 in assay [3] of 210 nM.

Regarding `CCn1ccc2c(OCC3CCCO3)cc(Cc3cnc(N)nc3N)cc21` (racemic) [Example 7i, rac-5-[1-Ethyl-4-(tetrahydro-furan-2-ylmethoxy)-1H-indol-6-ylmethyl]-pyrimidine-2,4-diamine], the values for the MIC in assay [1] and in assay [2] were 8 µg/mL (≈ 21.8 µM) and 0.5 µg/mL (≈ 1.36 µM), respectively. In addition, the IC50 in assay [3] was found to be 13 nM.

Regarding `Cn1ccc2c(OCC3CC3)cc(Cc3cnc(N)nc3N)cc21` [Example 5a, 5-(4-Cyclopropylmethoxy-1-methyl-1H-indol-6-ylmethyl)-pyrimidine-2,4-diamine], the MIC amounted to 4 µg/mL (≈ 12.4 µM) in assay [1] and 0.25 µg/mL (≈ 0.773 µM) in assay [2]. In assay [3], this molecule gave a 50% inhibitory concentration (IC50) of 110 nM.

Broadly, the IC50 is the point on the concentration scale where inhibition reaches its midpoint.
